# Data from patent US7722901B2, “Uses for the extract of a plant of the family Asclepiadaceae” (Cognis IP Management GmbH, priority 2004, dated 2010).
# System: human hair follicles
# Experiment: In vitro culture of human hair follicles (hair growth inhibition)
# Format: cell-based
# Settings: 50 follicles from 5 donors
# Protocol: The hair follicles were incubated for 7 days at 37° C. under an atmosphere of air that was enriched with carbon dioxide (5 vol.-%). The length of hair follicles was monitored before being cultured, after 3 days of culture and after 7 days of culture. […] The test was done on hair follicles coming from 3-5 different donors. For each donor 10 follicles were cultured for each set of conditions. The results presented in table 2 are the cumulated results of all hair follicles.
# [1] = with IGF-1 (30 ng/ml), 0.001 % P/v
smiles,measurement,setting,value
C=C[C@@]1(C)CC(=O)[C@]2(O)[C@@]3(C)[C@@H](O)CCC(C)(C)[C@@H]3[C@H](O)[C@H](OC(C)=O)[C@@]2(C)O1 [Forskolin],increase in hair growth Day 3/Day 0,[1],+9%
same,increase in hair growth Day 7/Day 0,[1],+17%
same,increase in hair growth Day 3/Day 0,"without IGF-1, 0.001 % P/v",+8%
same,increase in hair growth Day 7/Day 0,"without IGF-1, 0.001 % P/v",+15%
